# Source: patent US20260345517A1, “DOSAGE REGIMENS FOR TREATING STARGARDT DISEASE” (Alkeus Pharmaceuticals, Inc., priority 2024, published 2026)
# Assay: TEASE-1: safety and adverse events
# Type: in vivo, human
# Procedure: The Tolerability and Effects of gildeuretinol acetate in Stargardt Disease (Clinical trial group 1 also known as TEASE-1) was a 24-month, multicenter, double-masked, placebo-controlled trial designed to evaluate the efficacy and safety of daily oral gildeuretinol acetate in slowing the growth of atrophic retinal lesions in Stargardt disease patients. The trial was conducted at multiple sites in the United States (NCT02402660).
# Patients 12 years or older, clinically diagnosed with Stargardt disease, with at least one ABCA4 mutation, at least one eye presenting with well-demarcated areas of reduced fundus autofluorescence, and with any visual acuity, were eligible.
# Patients were randomized to gildeuretinol acetate 14 mg capsules, gildeuretinol acetate 24 mg capsules, or placebo capsules, to be taken once daily for one year. After one year, 50% of randomly selected patients receiving placebo were crossed over in a 1:1 ratio to gildeuretinol acetate 14 mg capsules or gildeuretinol acetate 24 mg capsules for a second year.
# Gildeuretinol acetate and placebo capsules were identical appearing capsules. Patients were advised to avoid vitamin A-containing supplements and liver-based products. Fruits and vegetables contain beta-carotene, not preformed vitamin A, and could be consumed without limitation. Trial visits occurred at 8 weeks and 6, 12, 18, and 24 months following screening and randomization.
compound,measurement,setting,value
"CC(=O)OC/C=C(C)/C=C/C=C(C)/C=C/C1=C(C)CCCC1(C)C [gildeuretinol acetate, C20-D3-retinol acetate]","changes by physical examination, electrocardiogram, vital signs, hematology, biochemistry and lipid panels",14 mg and 24 mg,no changes were attributed to gildeuretinol acetate
same,changes in visual acuity,14 mg and 24 mg,No changes in visual acuity were observed
same,discontinuation due to side effects,14 mg and 24 mg,no patient discontinued treatment due to side effects
same,serious adverse events,14 mg and 24 mg,No serious adverse events
same,severity of adverse events,14 mg and 24 mg,mild or moderate
same,association between treatment groups and frequency of adverse events,14 mg and 24 mg vs placebo,no association was observed
same,Abdominal discomfort,"14 mg, N = 15",0 patients (%)
same,Abdominal distension,"14 mg, N = 15",0 patients (%)
same,Abdominal pain upper,"14 mg, N = 15",0 patients (%)
same,Abnormal dreams,"14 mg, N = 15",0 patients (%)
same,"Adverse events, Overall","14 mg, N = 15",12 (80) patients (%)
same,Alanine aminotransferase increased,"14 mg, N = 15",1 (6.7) patients (%)
same,Alopecia,"14 mg, N = 15",2 (13.3) patients (%)
same,Ankle fracture,"14 mg, N = 15",1 (6.7) patients (%)
same,Arthralgia,"14 mg, N = 15",1 (6.7) patients (%)
same,Arthritis,"14 mg, N = 15",0 patients (%)
same,Aspartate aminotransferase increased,"14 mg, N = 15",1 (6.7) patients (%)
same,Back injury,"14 mg, N = 15",0 patients (%)
same,Back pain,"14 mg, N = 15",0 patients (%)
same,Blepharospasm,"14 mg, N = 15",0 patients (%)
same,Blood cholesterol increased,"14 mg, N = 15",0 patients (%)
same,Blood creatinine increased,"14 mg, N = 15",1 (6.7) patients (%)
same,Blood iron decreased,"14 mg, N = 15",0 patients (%)
same,Blood pressure increased,"14 mg, N = 15",0 patients (%)
same,Blood triglycerides increased,"14 mg, N = 15",1 (6.7) patients (%)
same,Bowel movement irregularity,"14 mg, N = 15",0 patients (%)
same,Bronchitis,"14 mg, N = 15",0 patients (%)
same,Cartilage injury,"14 mg, N = 15",1 (6.7) patients (%)
same,Conjunctival laceration,"14 mg, N = 15",0 patients (%)
same,Conjunctivitis,"14 mg, N = 15",1 (6.7) patients (%)
same,Constipation,"14 mg, N = 15",0 patients (%)
same,Cough,"14 mg, N = 15",0 patients (%)
same,Death,"14 mg, N = 15",1 (6.7) patients (%)
same,Depression,"14 mg, N = 15",1 (6.7) patients (%)
same,Diarrhoea,"14 mg, N = 15",1 (6.7) patients (%)
same,Diplopia,"14 mg, N = 15",0 patients (%)
same,Dry eye,"14 mg, N = 15",0 patients (%)
same,Dry mouth,"14 mg, N = 15",1 (6.7) patients (%)
same,Dry skin,"14 mg, N = 15",0 patients (%)
same,Ear discomfort,"14 mg, N = 15",0 patients (%)
same,Ear infection,"14 mg, N = 15",0 patients (%)
same,Ear pain,"14 mg, N = 15",0 patients (%)
same,Eczema,"14 mg, N = 15",0 patients (%)
same,Electrocardiogram abnormal,"14 mg, N = 15",0 patients (%)
same,Erythema,"14 mg, N = 15",0 patients (%)
same,Eye irritation,"14 mg, N = 15",1 (6.7) patients (%)
same,Eye pain,"14 mg, N = 15",0 patients (%)
same,Eye pruritus,"14 mg, N = 15",0 patients (%)
same,Face injury,"14 mg, N = 15",1 (6.7) patients (%)
same,Faeces soft,"14 mg, N = 15",1 (6.7) patients (%)
same,Fall,"14 mg, N = 15",1 (6.7) patients (%)
same,Gastroenteritis,"14 mg, N = 15",1 (6.7) patients (%)
same,Gastroenteritis viral,"14 mg, N = 15",0 patients (%)
same,Hair texture abnormal,"14 mg, N = 15",0 patients (%)
same,Hand fracture,"14 mg, N = 15",1 (6.7) patients (%)
same,Headache,"14 mg, N = 15",1 (6.7) patients (%)
same,Herpes zoster,"14 mg, N = 15",1 (6.7) patients (%)
same,Hordeolum,"14 mg, N = 15",0 patients (%)
same,Hypertension,"14 mg, N = 15",0 patients (%)
same,Hypobarism,"14 mg, N = 15",0 patients (%)
same,Hypothyroidism,"14 mg, N = 15",0 patients (%)
same,Hysterectomy,"14 mg, N = 15",0 patients (%)
same,Inflammation,"14 mg, N = 15",0 patients (%)
same,Influenza,"14 mg, N = 15",0 patients (%)
same,Insomnia,"14 mg, N = 15",1 (6.7) patients (%)
same,Intracranial pressure increased,"14 mg, N = 15",0 patients (%)
same,Irritability,"14 mg, N = 15",0 patients (%)
same,Jaw operation,"14 mg, N = 15",0 patients (%)
same,Knee arthroplasty,"14 mg, N = 15",1 (6.7) patients (%)
same,Laryngitis,"14 mg, N = 15",1 (6.7) patients (%)
same,Lip swelling,"14 mg, N = 15",0 patients (%)
same,Low density lipoprotein increased,"14 mg, N = 15",1 (6.7) patients (%)
same,Muscle spasms,"14 mg, N = 15",1 (6.7) patients (%)
same,Muscle strain,"14 mg, N = 15",0 patients (%)
same,Musculoskeletal pain,"14 mg, N = 15",1 (6.7) patients (%)
same,Nasopharyngitis,"14 mg, N = 15",2 (13.3) patients (%)
same,Nausea,"14 mg, N = 15",0 patients (%)
same,Neck pain,"14 mg, N = 15",0 patients (%)
same,Nephrolithiasis,"14 mg, N = 15",1 (6.7) patients (%)
same,Nerve compression,"14 mg, N = 15",0 patients (%)
same,Neuralgia,"14 mg, N = 15",1 (6.7) patients (%)
same,Obsessive-compulsive disorder,"14 mg, N = 15",0 patients (%)
same,Oropharyngeal pain,"14 mg, N = 15",0 patients (%)
same,Osteoporosis,"14 mg, N = 15",0 patients (%)
same,Pain,"14 mg, N = 15",2 (13.3) patients (%)
same,Pain in extremity,"14 mg, N = 15",1 (6.7) patients (%)
same,Pain in jaw,"14 mg, N = 15",0 patients (%)
same,Peripheral coldness,"14 mg, N = 15",0 patients (%)
same,Pharyngitis streptococcal,"14 mg, N = 15",1 (6.7) patients (%)
same,Photophobia,"14 mg, N = 15",1 (6.7) patients (%)
